Assay results reported in patent US20120142766A1, “SUBSTITUTED 1,3-DIOXANES AND THEIR USES” (EVOLVA SA, priority 2007, published 2012).
Where “and” joins values, the source holds several entries; their conditions need not be identical. Equal entries are not always repeated.

Columns and labels:
[1] = tested on: Human platelet rich plasma; assay: TP receptor platelet aggregation, human (U-46619-induced); format: cell-based; details: 3 μM U-46619-induced
Procedure: Thrombosis Research 33:277-288.
TP Receptor Platelet Aggregation—Human:
Human (60±10 kg) platelet rich plasma
Assay. Inhibition of 3 μM U-46619-induced platelet aggregation Incubation Time, Temp: 5 minutes at 37° C. Incubation Buffer Trisodium Citrate (0.13 M)-treated fresh platelet rich plasma
Time of Assessment: 5 minutes
Quantification Method Optical Density Change

[2] = tested on: arterial thrombosis in a mouse model; assay: Arterial thrombosis mouse model (FeCl3 on femoral artery); format: in vivo; details: i.v.
Procedure: The solutions are diluted 3.3-fold in saline and 100 μl/25 g is injected. Thus, the above-mentioned doses of 100 and 300 mg/kg of compound correspond to final doses of 30 and 100 mg/kg.
During the experiments, a soluble salt of the drug is provided (potassium salt of compound C), diluted in saline. Of this formulation, 100 μl/25 g is injected i.v. in the tail vein (dose of 100 mg/kg).
Solutions are injected (100 μl/25 g body weight) i.v. in the tail vein over 2 min to obtain doses of each compound of 30 mg/kg and 100 mg/kg. Aspirin is given the same way at a dose of 200 mg/kg. Clopidogrel is administered by oral gavage at a dose of 20 mg/kg at 6-7 hours prior to the experiment. The animals assigned to each group are matched for body weight. Mice are typically 8-10 weeks old males and are in a 100% Swiss genetic background.
The flow in each image is expressed as a percentage of that at the contralateral side, and data are averaged for all 120 images to determine total flow. The same analysis is performed for 10 min intervals (which gives essentially the same information as the area under the curve). […] Flow before treatment is recorded as 100%, and that in occluded arteries as 0%. At the end of the experiment, blood is collected on 0.01M citrate by heart puncture for determination of blood cell counts. Plasma is prepared by centrifugation and stored at −20° C. for determination of drug levels.
Statistical analysis for differences between two groups is performed by non-parametric Student t-test. Occlusion times >30 min were considered equal to 30 min for statistical analysis. Significance is set at p<0.05.

[3] = molecular target: T1, Human Recombinant (E. coli) PPARgamma (Homo sapiens, UniProt P37231); assay: PPAR gamma binding assay ([3H]-rosiglitazone); details: [3H]-rosiglitazone 10 nM
T1 construct: host or cells: E. coli
T1 sequence (P37231 1-505): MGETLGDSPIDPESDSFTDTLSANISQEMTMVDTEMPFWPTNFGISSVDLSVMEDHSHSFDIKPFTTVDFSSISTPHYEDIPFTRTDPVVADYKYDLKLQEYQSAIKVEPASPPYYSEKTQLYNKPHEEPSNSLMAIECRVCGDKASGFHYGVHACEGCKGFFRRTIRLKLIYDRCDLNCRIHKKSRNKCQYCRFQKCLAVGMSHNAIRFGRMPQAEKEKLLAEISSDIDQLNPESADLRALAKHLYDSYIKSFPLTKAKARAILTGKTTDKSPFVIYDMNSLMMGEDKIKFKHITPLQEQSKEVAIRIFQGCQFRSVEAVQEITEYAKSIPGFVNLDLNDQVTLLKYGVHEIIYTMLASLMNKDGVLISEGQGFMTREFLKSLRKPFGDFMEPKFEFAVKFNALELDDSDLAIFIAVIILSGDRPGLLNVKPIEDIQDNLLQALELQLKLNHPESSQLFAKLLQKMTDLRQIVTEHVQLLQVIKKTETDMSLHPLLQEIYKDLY
Procedure: Incubation: 120 min. at 4° C.
The results are expressed as a percent of control specific binding ((measured specific binding/control specific binding)×100) obtained in the presence of the test compounds. The IC50 values (concentration causing a half-maximal inhibition of control specific binding) and Hill coefficients (nil) were determined by non-linear regression analysis of the competition curves generated with mean replicate values using Hill equation curve fitting (Y=D+[(A−D)/(1+(C/C50)nH)], where Y=specific binding, D=minimum specific binding, A=maximum specific binding, C=compound concentration, C50=IC50, and nH=slope factor). This analysis was performed using a software developed at Cerep (Hill software) and validated by comparison with data generated by the commercial software SigmaPlot® 4.0 for Windows® (© 1997 by SPSS Inc.). The inhibition constants (Ki) were calculated using the Cheng Prusoff equation (Ki=IC50/(1+(L/KD)), where L=concentration of radioligand in the assay, and KD=affinity of the radioligand for the receptor).

[4] = tested on: KKA^y mice; assay: KKAy mice on high fat diet, 14-day oral gavage BID; format: in vivo, mouse
Procedure: 52 male KKA^y mice are obtained commercially (e.g., from Clea Japan) at an age of 6 weeks and put on a high fat diet upon arrival. Individual mice were housed in IVC Type II cages during both the acclimatization and the experimental phase. Both food (high fat diet) and water are supplied ad libitum.
1 animal per cage. […] Lights on at 06:00 a.m. Temperature: 21-25° C. Relative humidity target range: 55-60%.
Mice were randomized into treatment groups according to their 4-h fasting blood glucose.
4 hours after the last administration, non-fasting conditions.
Gamma irradiated high fat diet is commercially available (e.g., Research Diets, Inc. New Brunswick, N.J. (Product # D12266BI)).
Blood is collected into heparin containing glass capillaries which are subsequently centrifuged in a “Haematokrit 24” centrifuge (Hettich) at 15′200×g for 10 minutes at room temperature to obtain the hematocrit value.
The following serum parameters are determined on a COBAS INTEGRA 800 auto analyzer (Roche Diagnostics, Switzerland) using the reagents and protocols provided by the supplier.
All measurements are made on Day 14 of administration, except for the food intake and body weight measurements that are made on Day 12.

[5] = 53 mg/kg BID oral gavage, Day 12, mean ± S.E.M.
[6] = 53 mg/kg BID oral gavage, Day 14, mean ± S.E.M.
[7] = 14-day BID, enoic acid 53 mg/kg, rosiglitazone 5 mg/kg, Compounds 3 and 13 dose not stated

With `O=C(O)CC/C=C\C[C@@H]1CO[C@H](c2ccccc2Cl)O[C@@H]1c1ccccc1O` [Compound C, (Z)-6-((2S,4S,5R)-2-(2-chlorophenyl)-4-(2-hydroxyphenyl)-1,3-dioxan-5-yl)hex-4-enoic acid] the IC50 [1] was 0.31 µM, the Occlusion time ([2]; 30 mg/kg in vehicle) was “slightly prolongs the occlusion time as compared to aspirin (p=0.024), but has no effect as compared to vehicle” and the Total blood flow ([2]; 30 mg/kg in vehicle) was “no effect on total blood flow”. For the same compound, the Occlusion time ([2]; 100 mg/kg in vehicle) was “prolongs the occlusion time versus aspirin (p=0.0002), but not versus vehicle only (p=0.095)”, the Total blood flow ([2]; 100 mg/kg in vehicle) was “slightly improved total blood flow as compared to aspirin (p=0.055), but not as compared to vehicle (p=0.45)” and the “Blood flow in the time window 0-10 min” value ([2]; 100 mg/kg in vehicle, 0-10 min) was “significantly higher flow as compared to aspirin (p=0.0002) but not as compared to vehicle only (p=0.11)”. The Ki ([3]; Cheng Prusoff, read-out: PPARγ binding Ki) was 1.8 µM and 4.3 µM, the IC50 ([3]; read-out: PPARγ binding IC50) was 4.9 µM and 12 µM and the “Body Weight” value [4, 5] was 45.4 ± 1.0 g. For the same compound, the “Food Intake” value [4, 5] was 5.0 ± 0.6 g/day, the ALP [4, 6] was 21.5 ± 1.6 dU/L and the ALT [4, 6] was 5.1 ± 0.6 dU/L. It also gave an AST [4, 6] of 7.7 ± 1.0 dU/L, an FFA [4, 6] of 1.7 ± 0.3 mM and a Fructosamine [4, 6] of 0.41 ± 0.03 mM. The HDL [4, 6] was 3.1 ± 0.2 mM, the HbA1C [4, 6] was 7.8 ± 0.3 % and the Heart weight [4, 6] was 208.5 ± 7.6 mg. For the same compound, the Hematocrit [4, 6] was 40.1 ± 1.6%, the Insulin [4, 6] was 39.1 ± 8.8 µg/L and the “Serum Glucose” value [4, 6] was 31.9 ± 3.6 mM. For the same compound, the TG [4, 6] was 2.0 ± 0.3 mM, the “Total Cholesterol” value [4, 6] was 3.6 ± 0.3 mM and the “Body weight (in words)” value [4, 7] was “do not alter body weight”. The “Circulating glucose levels (in words)” value [4, 7] was “decreased”, the “FFA (in words)” value [4, 7] was “decreases the FFA” and the “HbA1c levels (in words)” value [4, 7] was “decreased”. For the same compound, the “Heart weight (in words)” value [4, 7] was “no effect on heart weight”.
